“Also recorded” adds a separate entry of the source.
How the values were obtained:
Format in all cases: in vivo
[1] = tested on: cytokines; test: Cytokine analysis of serum samples after administration: other cytokines; details: male CD-1 mice, LNP-ceDNA 0.5 mg/kg i.v.; cytokines other than IL-6, TNF-alpha, RANTES
Excerpt: (§1) FIGS. 6A, 6B and 6C provide graphs showing data from the experiments described in Example 6.

[2] = tested on: RANTES; test: Cytokine analysis of serum samples after administration: RANTES; details: male CD-1 mice, LNP-ceDNA 0.5 mg/kg i.v.; relative to ceDNA treatment alone
Excerpt: as §1

[3] = tested on: TNF-alpha; test: Cytokine analysis of serum samples after administration: TNF-alpha; details: male CD-1 mice, LNP-ceDNA 0.5 mg/kg i.v.; relative to ceDNA treatment alone
Excerpt: as §1

[4] = tested on: IL-6; test: Cytokine analysis of serum samples after administration: IL-6; details: male CD-1 mice, LNP-ceDNA 0.5 mg/kg i.v.; relative to ceDNA treatment alone
Excerpt: as §1

[5] = tested on: luciferase transgene expression from ceDNA vector; test: In-life IVIS imaging of luciferase expression from ceDNA vector; details: male CD-1 mice, LNP-ceDNA 0.5 mg/kg i.v., day 4 and day 7, compared with ceDNA/polyC group
Procedure: A ceDNA vector encoding luciferase as the transgene (e.g., SEQ ID NO: 56), with a wild-type AAV2 left ITR and a mutant right ITR and a hAAT promoter, methylated to eliminate free CpG, was used. The ceDNA vector was prepared as described above. […] Four replicates were included in each sample group. Body weights were recorded on days 0, 1, 2, 3, 7, 14, 21 and 28. In-life imaging was performed on days 4, 7, 14, 21, and 28 using an in vivo imaging system (IVIS). For the imaging, each mouse was injected with luciferin at 150 mg/kg via intraperitoneal injection at 2.5 mL/kg. After 15 minutes, each mouse was anaesthetized and imaged.

dexamethasone palmitate
levels of other cytokines (serum) [1]: not impacting
induction of RANTES (serum level) [2]: significantly less induction; also recorded: significantly reduced
induction of TNF-alpha (serum level) [3]: significantly less induction; also recorded: significantly reduced
induction of IL-6 (serum level) [4]: significantly less induction; also recorded: significantly reduced
total flux (luciferase expression from the ceDNA vector) [5]: no impact

Source: patent US20220184231A1, “CLOSED-ENDED DNA (CEDNA) AND IMMUNE MODULATING COMPOUNDS” (Generation Bio Co., priority 2019, published 2022)
